Data from ChEMBL document CHEMBL1148892, “Evaluation of in vitro aldose redutase inhibitory activity of 5-arylidene-2,4-thiazolidinediones” (Bioorg Med Chem Lett, 2007).

molecular target: Aldo-keto reductase family 1 member B1 (Bos taurus, UniProt P16116); assay: Inhibition of bovine aldose reductase

Row | Compound | IC50 [µM]
1 | COc1cc(/C=C2\SC(=O)NC2=O)ccc1O | 11.8
2 | O=C(O)COc1cccc(/C=C2\SC(=O)N(CC(=O)O)C2=O)c1 | 0.23
3 | COc1cc(/C=C2\SC(=O)N(CC(=O)O)C2=O)ccc1O | 0.7
4 | COc1ccc(/C=C2\SC(=O)N(CC(=O)O)C2=O)cc1O | 0.56
5 | COc1cc(/C=C2\SC(=O)N(CC(=O)O)C2=O)ccc1OCC(=O)O | 0.26
6 | O=C(O)COc1ccc(/C=C2\SC(=O)N(CC(=O)O)C2=O)cc1 | 0.6

molecular target: Aldo-keto reductase family 1 member B1 (Bos taurus) (UniProt P16116); assay: Inhibition of bovine aldose reductase at 12.5 uM

Row | Compound | inhibition [%]
7 | COc1ccc(/C=C2\SC(=O)NC2=O)cc1O | 33
